Reference: US20240092835A1, “NOVEL PEPTIDES CAPABLE OF ALTERING NK CELL ACTIVITY” (Massachusetts Institute of Technology, priority 2022, published 2024)

Legend:
NKG2A+/NKG2C− NK cells = test: NK cell activation markers in NKG2A+/NKG2C- NK cells incubated with peptide and K562 expressing HLA-E (inhibition); type: cell-based, human; conditions: for percentage of CCL3+ NK cells / percentage of CD107a+ NK cells / percentage of IFNG+ NK cells / percentage of TNF+ NK cells: NKG2A+/NKG2C- NK cells, K562/HLA-E
Experimental: (§1) A human immortalized myelogenous leukemia cell line (K562), which expresses HLA-E was incubated with novel peptides (Table 1) derived from the human proteome or human cytomegalovirus proteome. […] Controls assessments were also performed using NKG2A−/NKG2C− cells (Tables 10-13). Inhibition was indicated by a decrease in percent cells positive for cell surface markers, while activation was indicated by an increase in percent cells positive for cell surface markers.

NKG2A−/NKG2C+ NK cells = test: NK cell activation markers in NKG2A-/NKG2C+ NK cells incubated with peptide and K562 expressing HLA-E (activation); type: cell-based, human; conditions: for effect on NKG2A−/NKG2C+ NK cell activation (in words): K562 expressing HLA-E, CD107a, IFNG, TNF, CCL3; for percentage of CCL3+ NK cells / percentage of CD107+ NK cells / percentage of IFNG+ NK cells / percentage of TNF+ NK cells: NKG2A-/NKG2C+ NK cells, K562/HLA-E
Experimental: as §1

NKG2A−/NKG2C− NK cells = test: NK cell activation markers in control NKG2A-/NKG2C- NK cells incubated with peptide and K562 expressing HLA-E; type: cell-based, human
Experimental: as §1

HLA-E = target: T1, HLA-E (Homo sapiens, UniProt P13747); test: HLA-E surface stabilization assay with RMA-S/HLA-E cells; type: cell-based; conditions: 30 μM peptide, 16 hours, anti-HLA-E antibody
T1 construct: expressed in transfected cells; host or cells: RMA-S/HLA-E cells (antigen processing-defective lymphoma cell line)
Experimental: HLA-E surface expression was assessed by measuring geometric mean fluorescence intensity (GeoMFI) in RMA-S cells following immunofluorescence staining with an anti-HLA-E antibody (Table 14). Increased GeoMFI was indicative of increased HLA-E surface expression stability following novel peptide exposures (FIG. 3).

T1 sequence (P13747 22-358): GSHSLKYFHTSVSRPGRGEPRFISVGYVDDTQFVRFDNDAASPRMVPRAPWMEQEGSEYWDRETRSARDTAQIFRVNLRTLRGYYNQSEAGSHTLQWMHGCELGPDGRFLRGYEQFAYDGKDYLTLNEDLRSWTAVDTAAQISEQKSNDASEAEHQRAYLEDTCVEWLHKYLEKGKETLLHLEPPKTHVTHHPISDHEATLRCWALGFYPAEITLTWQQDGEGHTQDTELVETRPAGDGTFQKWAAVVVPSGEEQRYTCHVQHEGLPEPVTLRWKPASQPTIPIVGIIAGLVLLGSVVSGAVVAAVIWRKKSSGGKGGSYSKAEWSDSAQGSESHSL
T1 sequence (P61769 21-119 partner): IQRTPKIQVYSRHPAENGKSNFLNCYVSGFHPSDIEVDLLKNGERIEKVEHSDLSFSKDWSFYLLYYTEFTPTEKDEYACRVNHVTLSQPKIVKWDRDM

## RMPPRSVLL [human12]
NKG2A+/NKG2C− NK cells; K562 expressing HLA-E, CD107a, IFNG, TNF, CCL3
  effect on NKG2A+/NKG2C− NK cell inhibition (in words): strong inhibitory
NKG2A+/NKG2C− NK cells; Trial 1
  percentage of CCL3+ NK cells: 1.94%
  percentage of CD107a+ NK cells: 0.85%
  percentage of IFNG+ NK cells: 0.14%
  percentage of TNF+ NK cells: 0.03%
NKG2A+/NKG2C− NK cells; Trial 2
  percentage of CCL3+ NK cells: 2.96%
  percentage of CD107a+ NK cells: 0.99%
  percentage of IFNG+ NK cells: 0.32%
  percentage of TNF+ NK cells: 0.17%
NKG2A+/NKG2C− NK cells; Trial 3
  percentage of CCL3+ NK cells: 2.9%
  percentage of CD107a+ NK cells: 1.25%
  percentage of IFNG+ NK cells: 0.65%
  percentage of TNF+ NK cells: 0.45%
NKG2A−/NKG2C+ NK cells; listed as SEQ ID NO. 13
  effect on NKG2A−/NKG2C+ NK cell activation (in words): strong activating effects
NKG2A−/NKG2C+ NK cells; listed as h12
  effect on NKG2A−/NKG2C+ NK cell activation (in words): strong inhibitory and activating effects
NKG2A−/NKG2C+ NK cells; Trial 1
  percentage of CCL3+ NK cells: 55.3%
  percentage of CD107+ NK cells: 36.5%
  percentage of IFNG+ NK cells: 20.7%
  percentage of TNF+ NK cells: 12.6%
NKG2A−/NKG2C+ NK cells; Trial 2
  percentage of CCL3+ NK cells: 83.9%
  percentage of CD107+ NK cells: 77%
  percentage of IFNG+ NK cells: 63.3%
  percentage of TNF+ NK cells: 52.7%
NKG2A−/NKG2C+ NK cells; Trial 3
  percentage of CCL3+ NK cells: 81.7%
  percentage of CD107+ NK cells: 80.3%
  percentage of IFNG+ NK cells: 66.3%
  percentage of TNF+ NK cells: 59.6%
NKG2A−/NKG2C− NK cells; Trial 1
  percentage CCL3+ NK cells: 29.3%
  percentage CD107+ NK cells: 20.2%
  percentage TNF+ NK cells: 3.43%
  percentage of IFNG+ NK cells: 10.2%
NKG2A−/NKG2C− NK cells; Trial 2
  percentage CCL3+ NK cells: 51.6%
  percentage CD107+ NK cells: 29%
  percentage TNF+ NK cells: 9.58%
  percentage of IFNG+ NK cells: 24%
NKG2A−/NKG2C− NK cells; Trial 3
  percentage CCL3+ NK cells: 46.5%
  percentage CD107+ NK cells: 42%
  percentage TNF+ NK cells: 15.5%
  percentage of IFNG+ NK cells: 36.2%
HLA-E; Trial 1
  HLA-E surface expression stability (GeoMFI): 3779 GeoMFI
HLA-E; Trial 2
  HLA-E surface expression stability (GeoMFI): 4219 GeoMFI
HLA-E; Trial 3
  HLA-E surface expression stability (GeoMFI): 4273 GeoMFI
HLA-E; Trial 4
  HLA-E surface expression stability (GeoMFI): 4705 GeoMFI
